Data taken from article PMC7851594 (Genome Biology and Evolution, 2020).

Columns and labels:
drT2R3a [1] = target: T1, drT2R3a (Danio rerio, UniProt Q2AB30); type: cell-based
T1 sequence (Q2AB30 1-313): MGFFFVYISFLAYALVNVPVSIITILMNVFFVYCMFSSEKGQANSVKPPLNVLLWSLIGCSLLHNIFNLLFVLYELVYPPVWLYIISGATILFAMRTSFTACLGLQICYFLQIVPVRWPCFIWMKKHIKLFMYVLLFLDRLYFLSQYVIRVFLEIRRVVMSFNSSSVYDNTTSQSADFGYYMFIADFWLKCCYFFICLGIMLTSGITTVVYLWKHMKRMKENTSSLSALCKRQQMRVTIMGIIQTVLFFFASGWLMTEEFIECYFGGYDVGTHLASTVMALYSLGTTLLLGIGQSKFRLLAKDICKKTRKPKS

drT2R3a [2] = target: T1, drT2R3a; type: cell-based; remark: listed apart in the source

SMILES	EC50 (drT2R3a [1])	IC50 (drT2R3a [2])
CC[N+](CC)(CC(=O)Nc1c(C)cccc1C)Cc1ccccc1 [DB, Denatonium benzoate]	230 ± 20 µM	–
O=C1NS(=O)(=O)c2ccccc21 [saccharin]	–	920 ± 280 µM
